Measurements from patent publication US20070275962A1, “Heterobicyclic Compounds as Pharmaceutically Active Agents” (GPC BIOTECH AG, priority 2003, published 2007).

Key:
[1] = biological target: T1, mycobacterial protein kinase G (PknG) (Mycobacterium tuberculosis, UniProt P9WI73); experiment: biochemical; conditions: read-out: Inhibition of PknG (IC50, [μM])
T1 construct: GST; made in house; host or cells: E. coli BL21

SRPK1 GST = biological target: T2, SRPK1 GST (Homo sapiens, UniProt Q96SB4); experiment: General kinase assay: SRPK1; assay type: biochemical; conditions: concentration 10 μM; read-out: Inhibitory effect on Target SRPK1 GST
T2 construct: GST
T2 sequence (Q96SB4 whole entry): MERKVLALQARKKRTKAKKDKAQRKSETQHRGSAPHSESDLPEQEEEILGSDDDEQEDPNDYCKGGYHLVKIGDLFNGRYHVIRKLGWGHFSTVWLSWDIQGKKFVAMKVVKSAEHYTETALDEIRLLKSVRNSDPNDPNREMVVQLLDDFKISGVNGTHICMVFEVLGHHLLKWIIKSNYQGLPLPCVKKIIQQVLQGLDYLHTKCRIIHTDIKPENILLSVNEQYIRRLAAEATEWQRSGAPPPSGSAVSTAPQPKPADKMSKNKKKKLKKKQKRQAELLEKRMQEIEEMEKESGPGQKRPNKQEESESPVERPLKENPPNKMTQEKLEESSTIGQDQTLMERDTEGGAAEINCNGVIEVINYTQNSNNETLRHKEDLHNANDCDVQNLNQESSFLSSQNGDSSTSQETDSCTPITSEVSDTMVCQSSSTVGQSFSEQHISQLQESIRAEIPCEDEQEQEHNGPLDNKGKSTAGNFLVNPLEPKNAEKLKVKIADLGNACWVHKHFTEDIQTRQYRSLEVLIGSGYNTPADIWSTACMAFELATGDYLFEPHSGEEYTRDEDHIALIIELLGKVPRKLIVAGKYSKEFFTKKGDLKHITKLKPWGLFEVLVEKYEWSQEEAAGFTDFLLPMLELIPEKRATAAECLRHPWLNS
Description: (§1) General Assay Protocol for all Kinases [[[…]]] [[[…]]] Reaction Buffer: Final Assay Concentrations: [[[…]]] Pipetting Sequence: • 1) Add 8 μl 50 μM MBP in Reaction Buffer to each well of Assay Plate • 2) Add 10 μl 500 mM EDTA in H2O to C- wells • 3) Add 8 μl 62.5 μCi/ml Adenosine 5'-[γ-^33P]triphosphate+5 μM ATP in Reaction Buffer to each well • 4) Add 8 μl 5 fold concentrated inhibitor in 5% DMSO in Reaction Buffer to each well except to C- and C+ wells • 5) Add 8 μl 5% DMSO in Reaction Buffer to C- and C+ wells • 6) Add 8 μl 5 fold concentrated kinase in Reaction Buffer to each well • 7) Incubate 1 hr at room temperature • 8) Add 10 μl 50 mM EDTA in H2O to each well except to C- wells • 9) Prepare MAPH plates by adding 200 μl 0.75% H3PO4 to each well • 10) Exhaust 0.75% H3PO4 using Millipore vacuum station • 11) Add 60 μl 0.75% H3PO4 to each well of MAPH Filter Plate • 12) Transfer 30 μl sample per well from Assay Plate to corresponding well of MAPH Filter Plate • 13) Incubate 30 min at room temperature • 14) Wash each well of MAPH Filter Plates 3× with 200 μl 0.75% H3PO4 using Millipore vacuum station • 15) Add 20 μl Szintilation Liquid to each well of MAPH Filter Plate • 16) Seal MAPH Filter Plate • 17) Store MAPH Filter Plate 30 min in darkness • 18) Quantify radioactivity

RICK-STREP 1 = biological target: T3, RICK-STREP 1 (Homo sapiens, UniProt O43353); experiment: General kinase assay: RICK; assay type: biochemical; conditions: concentration 10 μM; read-out: Inhibitory effect on Target RICK-STREP 1
T3 construct: Strep
T3 sequence (O43353 whole entry): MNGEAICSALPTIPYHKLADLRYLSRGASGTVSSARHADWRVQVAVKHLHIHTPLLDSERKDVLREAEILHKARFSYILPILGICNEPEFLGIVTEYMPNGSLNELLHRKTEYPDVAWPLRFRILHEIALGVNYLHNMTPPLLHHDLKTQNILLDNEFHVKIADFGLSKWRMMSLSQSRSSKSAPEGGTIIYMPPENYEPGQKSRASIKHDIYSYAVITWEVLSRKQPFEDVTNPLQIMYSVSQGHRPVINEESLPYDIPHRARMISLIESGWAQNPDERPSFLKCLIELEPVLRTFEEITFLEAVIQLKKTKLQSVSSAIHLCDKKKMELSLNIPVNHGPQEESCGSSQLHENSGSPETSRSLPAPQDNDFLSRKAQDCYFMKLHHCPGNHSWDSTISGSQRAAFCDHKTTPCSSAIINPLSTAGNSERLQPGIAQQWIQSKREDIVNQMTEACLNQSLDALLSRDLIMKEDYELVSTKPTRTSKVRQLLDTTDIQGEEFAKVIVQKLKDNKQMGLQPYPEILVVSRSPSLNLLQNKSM
Description: as §1

CK1-alpha GST = biological target: T4, CK1-alpha GST (Homo sapiens, UniProt P48729); experiment: General kinase assay: CK1-alpha; assay type: biochemical; conditions: concentration 10 μM; read-out: Inhibitory effect on Target CK1-alpha GST
T4 construct: GST
T4 sequence (P48729 whole entry): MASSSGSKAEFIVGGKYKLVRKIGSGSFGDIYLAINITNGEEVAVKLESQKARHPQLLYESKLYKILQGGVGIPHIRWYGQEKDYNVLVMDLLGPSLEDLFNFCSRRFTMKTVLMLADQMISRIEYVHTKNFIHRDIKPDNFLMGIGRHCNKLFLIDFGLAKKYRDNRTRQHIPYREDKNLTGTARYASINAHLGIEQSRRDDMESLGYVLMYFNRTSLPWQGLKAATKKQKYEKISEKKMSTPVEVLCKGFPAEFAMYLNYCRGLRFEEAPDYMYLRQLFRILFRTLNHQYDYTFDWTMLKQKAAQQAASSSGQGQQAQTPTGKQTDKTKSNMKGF
Description: as §1

CDK2/CycA = CDK2/CycA (Homo sapiens, UniProt P24941); experiment: General kinase assay: CDK2/CycA; assay type: biochemical; conditions: concentration 10 μM; read-out: Inhibitory effect on Target CDK2/CycA
Description: as §1

PDGFRbeta GST = biological target: T5, PDGFRbeta GST (Homo sapiens, UniProt P09619); experiment: General kinase assay: PDGFRbeta; assay type: biochemical; conditions: concentration 10 μM; read-out: Inhibitory effect on Target PDGFRbeta GST
T5 construct: GST
T5 sequence (P09619 33-1106): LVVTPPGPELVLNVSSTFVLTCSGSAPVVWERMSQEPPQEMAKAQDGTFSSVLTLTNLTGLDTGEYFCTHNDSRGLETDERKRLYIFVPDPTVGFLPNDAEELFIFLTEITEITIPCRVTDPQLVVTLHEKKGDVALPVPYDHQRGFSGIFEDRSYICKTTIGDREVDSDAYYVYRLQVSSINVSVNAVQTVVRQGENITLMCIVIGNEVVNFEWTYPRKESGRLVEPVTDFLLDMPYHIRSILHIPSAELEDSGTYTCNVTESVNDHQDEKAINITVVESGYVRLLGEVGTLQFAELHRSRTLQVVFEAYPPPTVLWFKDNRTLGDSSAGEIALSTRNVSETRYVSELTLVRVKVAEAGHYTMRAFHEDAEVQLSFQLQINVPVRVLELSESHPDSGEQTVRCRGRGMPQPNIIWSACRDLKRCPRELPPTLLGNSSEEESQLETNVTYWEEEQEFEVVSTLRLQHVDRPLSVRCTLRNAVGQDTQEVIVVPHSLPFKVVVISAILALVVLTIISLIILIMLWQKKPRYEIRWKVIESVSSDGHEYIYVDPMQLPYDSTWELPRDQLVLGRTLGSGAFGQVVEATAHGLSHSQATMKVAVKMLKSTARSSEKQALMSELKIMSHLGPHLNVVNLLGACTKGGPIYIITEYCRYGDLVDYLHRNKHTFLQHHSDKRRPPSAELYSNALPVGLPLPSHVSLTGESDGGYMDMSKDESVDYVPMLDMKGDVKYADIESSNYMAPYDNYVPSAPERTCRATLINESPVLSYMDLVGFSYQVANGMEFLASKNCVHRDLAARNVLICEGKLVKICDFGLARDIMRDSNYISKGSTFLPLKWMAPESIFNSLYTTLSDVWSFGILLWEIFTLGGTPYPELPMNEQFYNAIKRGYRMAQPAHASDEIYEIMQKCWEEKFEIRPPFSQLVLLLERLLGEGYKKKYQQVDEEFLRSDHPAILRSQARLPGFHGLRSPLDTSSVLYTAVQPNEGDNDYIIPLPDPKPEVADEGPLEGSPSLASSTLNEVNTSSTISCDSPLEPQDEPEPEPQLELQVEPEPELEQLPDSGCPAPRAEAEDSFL
Description: as §1

GSK-3beta HIS = biological target: T6, GSK-3beta HIS (Homo sapiens, UniProt P49841); experiment: General kinase assay: GSK-3beta; assay type: biochemical; conditions: concentration 10 μM; read-out: Inhibitory effect on Target GSK-3beta HIS
T6 construct: His
T6 sequence (P49841 whole entry): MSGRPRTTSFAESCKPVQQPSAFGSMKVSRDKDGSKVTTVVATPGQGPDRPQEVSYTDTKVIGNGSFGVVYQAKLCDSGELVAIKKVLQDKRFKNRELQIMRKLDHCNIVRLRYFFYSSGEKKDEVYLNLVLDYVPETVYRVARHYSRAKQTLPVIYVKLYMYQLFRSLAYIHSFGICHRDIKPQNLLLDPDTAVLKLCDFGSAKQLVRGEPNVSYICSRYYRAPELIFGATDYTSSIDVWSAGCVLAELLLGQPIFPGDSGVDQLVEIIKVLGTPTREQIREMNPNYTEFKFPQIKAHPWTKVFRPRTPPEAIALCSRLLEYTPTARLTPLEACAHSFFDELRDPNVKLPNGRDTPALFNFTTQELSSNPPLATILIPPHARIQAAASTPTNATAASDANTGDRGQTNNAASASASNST
Description: as §1

T1 sequence (P9WI73 whole entry): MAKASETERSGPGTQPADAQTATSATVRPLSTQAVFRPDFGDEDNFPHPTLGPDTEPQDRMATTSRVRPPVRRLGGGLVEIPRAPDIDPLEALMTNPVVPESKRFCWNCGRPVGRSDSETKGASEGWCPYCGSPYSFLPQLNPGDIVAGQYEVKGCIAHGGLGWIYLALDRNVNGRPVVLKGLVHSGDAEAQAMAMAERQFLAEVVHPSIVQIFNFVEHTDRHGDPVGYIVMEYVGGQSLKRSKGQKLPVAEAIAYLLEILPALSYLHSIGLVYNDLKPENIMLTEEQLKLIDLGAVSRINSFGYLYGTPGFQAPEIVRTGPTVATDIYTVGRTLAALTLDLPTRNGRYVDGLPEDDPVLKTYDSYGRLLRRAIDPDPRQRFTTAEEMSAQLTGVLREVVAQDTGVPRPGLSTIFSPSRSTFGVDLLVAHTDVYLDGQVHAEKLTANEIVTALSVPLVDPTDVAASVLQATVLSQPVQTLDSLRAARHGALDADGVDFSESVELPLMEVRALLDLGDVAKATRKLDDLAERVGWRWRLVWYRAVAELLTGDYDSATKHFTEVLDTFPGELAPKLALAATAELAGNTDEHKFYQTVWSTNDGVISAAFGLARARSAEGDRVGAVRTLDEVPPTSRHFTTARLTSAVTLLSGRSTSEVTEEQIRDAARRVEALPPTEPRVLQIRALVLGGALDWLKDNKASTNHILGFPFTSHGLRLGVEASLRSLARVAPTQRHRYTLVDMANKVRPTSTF

NC(=O)c1c(NC(=O)C2CC2)sc2cc(OCC(=O)NCCO)ccc12 [Compound A8, 2-(Cyclopropanecarbonyl-amino)-6-[(2-hydroxy-ethylcarbamoyl)-methoxy]-benzo[b]thiophene-3-carboxylic acid amide]
IC50 [1]: 0.1 to 1 µM

CCN(CC)C(=O)c1cc2c(C(N)=O)c(NC(=O)C3CC3)sc2cc1O [Compound A17, 2-(Cyclopropanecarbonyl-amino)-6-hydroxy-benzo[b]thiophene-3,5-dicarboxylic acid 3-amide-5-diethylamid]
IC50 [1]: 1.1 to 10 µM

NC(=O)c1c(NC(=O)C2CC2)sc2cc(OCCO)ccc12 [Compound A20, 2-(Cyclopropanecarbonyl-amino)-6-(2-hydroxy-ethoxy)-benzo[b]thiophene-3-carboxylic acid amide]
IC50 [1]: 0.1 to 1 µM

NC(=O)c1c(NC(=O)C2CC2)sc2c(Br)c(O)c(Br)cc12 [Compound A38, 5,7-Dibromo-2-(cyclopropanecarbonyl-amino)-6-hydroxy-benzo[b]thiophene-3-carboxylic acid amide]
IC50 [1]: < 0.1 µM

NC(=O)c1c(NC(=O)C2CC2)sc2c1CCOC2 [Compound B1, 2-(Cyclopropanecarbonyl-amino)4,7-dihydro-5H-thieno[2,3-c]pyran-3-carboxylic acid amide]
IC50 [1]: 0.1 to 1 µM

CC(C)C(=O)Nc1sc2c(c1C(N)=O)CCOC2 [Compound B2, 2-Isobutyrylamino-4,7-dihydro-5H-thieno[2,3-c]pyran-3-carboxylic acid amide]
IC50 [1]: > 10 µM

NC(=O)c1c(NC(=O)C2CCCC2)sc2c1CCOC2 [Compound B10, 2-(Cyclopentanecarbonyl-amino)-4,7-dihydro-5H-thieno[2,3-c]pyran-3-carboxylic acid amide]
IC50 [1]: 1.1 to 10 µM

CCC(C)C(=O)Nc1sc2c(c1C(N)=O)CCOC2 (stereo not drawn) [Compound B14, 2-(2-Methyl-butyrylamino)-4 ,7-dihydro-5H-thieno[2,3-c]pyran-3-carboxylic acid amide]
IC50 [1]: > 10 µM

NC(=O)c1c(NC(=O)C2CCC2)sc2c1CCOC2 [Compound B15, 2-(Cyclobutanecarbonyl-amino)-4,7-dihydro-5H-thieno[2,3-c]pyran-3-carboxylic acid amide]
IC50 [1]: 1.1 to 10 µM

CC=CC(=O)Nc1sc2c(c1C(N)=O)CCOC2 [Compound B16, 2-But-2-enoylamino-4,7-dihydro-5H-thieno[2,3-c]pyran-3-carboxylic acid amide]
IC50 [1]: 1.1 to 10 µM

CC(C)=CC(=O)Nc1sc2c(c1C(N)=O)CCOC2 [Compound B17, 2-(3-Methyl-but-2-enoylamino)-4,7-dihydro-5H-thieno[2,3-c]pyran-3-carboxylic acid amide]
IC50 [1]: 1.1 to 10 µM

CC(C)(C)C(=O)Nc1sc2c(c1C(N)=O)CCOC2 [Compound B18, 2-(2,2-Dimethyl-propionylamino)-4,7-dihydro-5H-thieno[2,3-c]pyran-3-carboxylic acid amide]
IC50 [1]: > 10 µM

NC(=O)c1c(NC(=O)Nc2ccncc2)sc2c1CCOC2 [Compound B73, 2-(3-Pyridin-4-yl-ureido]-4,7-dihydro-5H-thieno[2,3-c]pyran-3-carboxylic acid amide]
inhibition at 10 µM (SRPK1 GST): > 50% | inhibition at 10 µM (RICK-STREP 1): > 50% | inhibition at 10 µM (CK1-alpha GST): > 50%

NC(=O)c1c(NC(=O)NCCc2cccs2)sc2c1CCOC2 [Compound B75, 2-[3-(2-Thiophen-2-yl-ethyl)-ureido]-4,7-dihydro-5H-thieno[2,3-c]pyran-3-carboxylic acid amide]
IC50 [1]: 0.1 to 1 µM

CCOC(=O)N1CCC(NC(=O)Nc2sc3c(c2C(N)=O)CCOC3)CC1 [Compound B181, 4-[3-(3-Carbamoyl-4,7-dihydro-5H-thieno[2,3-c]pyran-2-yl)-ureido]-piperidine-1-carboxylic-acid ethyl ester]
IC50 [1]: 1.1 to 10 µM

NC(=O)c1c(NC(=O)C2CC2)sc2c1CC[S+]([O-])C2 (stereo not drawn) [Compound C2, 2-(Cyclopropanecarbonyl-amino)-6-oxo-4,5,6,7-tetrahydro-6λ^4-thieno[2,3-c]thiopyran-3-carboxylic acid amide]
IC50 [1]: > 10 µM

Cc1ccccc1CNC(=O)Nc1sc2c(c1C(N)=O)CCSC2 [Compound C33, 2-[3-(2-Methyl-benzyl)-ureido]-4,7-dihydro-5H-thieno[2,3-c]thiopyran-3-carboxylic acid amide]
IC50 [1]: > 10 µM

NC(=O)c1c(NC(=O)Nc2ccc(F)cc2)sc2c1CCSC2 [Compound C45, 2-[3-(4-Fluoro-phenyl)-ureido]-4,7-dihydro-5H-thieno[2,3-c]thiopyran-3-carboxylic acid amide]
inhibition at 10 µM (SRPK1 GST): > 50% | inhibition at 10 µM (CDK2/CycA): > 50% | inhibition at 10 µM (RICK-STREP 1): > 50% | inhibition at 10 µM (PDGFRbeta GST): > 50% | IC50 [1]: 0.1 to 1 µM | inhibition at 10 µM (GSK-3beta HIS): > 50%

NC(=O)c1c(NC(=O)Nc2ccc(Oc3ccccc3)cc2)sc2c1CCSC2 [Compound C49, 2-[3-(4-Phenoxy-phenyl)-ureido]-4,7-dihydro-5H-thieno[2,3-c]thiopyran-3-carboxylic acid amide]
IC50 [1]: 1.1 to 10 µM

NC(=O)c1c(NC(=O)C2CCC2)sc2c1CCCC2 [Compound D9, 2-(Cyclobutanecarbonylamino)-4,5,6,7-tetrahydro-benzo[b]thiophene-3-carboxylic acid amide]
IC50 [1]: 1.1 to 10 µM

C=CCNC(=S)Nc1sc2c(c1C(N)=O)CCCC2 [Compound D32, 2-(3-Allyl-thioureido)-4,5,6,7-tetrahydro-benzo[b]thiophene-3-carboxylic acid amide]
IC50 [1]: 1.1 to 10 µM

CC1CCc2sc(NC(=O)C3CC3)c(C(N)=O)c2C1 (stereo not drawn) [Compound D37, 2-(Cyclopropanecarbonyl-amino)-5-methyl-4,5,6,7-tetrahydro-benzo[b]thiophene-3-carboxylic acid amide]
IC50 [1]: < 0.1 µM

NC(=O)c1c(NC(=O)C2CC2)sc2c1CCC/C2=N\OCc1ccccc1 [Compound D72, E-7-Benzyloxyimino-2-(cyclopropanecarbonyl-amino)-4,5,6,7-tetrahydro-benzo[b]thiophene-3-carboxylic acid amide]
IC50 [1]: < 0.1 µM

CO/N=C1/CCCc2c1sc(NC(=O)C1CC1)c2C(N)=O [Compound D88, Z-2-(Cyclopropanecarbonyl-amino)-7-methoxyimino-4,5,6,7-tetrahydro-benzo[b]thiophene-3-carboxylic acid amide]
IC50 [1]: < 0.1 µM

CC1OCc2sc(NC(=O)C3CC3)c(C(N)=O)c21 (stereo not drawn) [Compound D96, 2-(Cyclopropanecarbonyl-amino)-4-methyl-4,6-dihydro-thieno[2,3-c]furan-3-carboxylic acid amide]
IC50 [1]: 1.1 to 10 µM

COc1ccc(NC(=O)Nc2sc3c(c2C(N)=O)CCC(=O)C3)cc1 [Compound D106, 2-[3-(4-Methoxy-phenyl)-ureido]-6-oxo-4,5,6,7-tetrahydro-benzo[b]thiophene-3-carboxylic acid amide]
IC50 [1]: 0.1 to 1 µM

NC(=O)c1c(NC(=O)C2CC2)sc2c1CCC(=NO)C2 [Compound D134, 2-(Cyclopropanecarbonyl-amino)-6-hydroxyimino-4,5,6,7-tetrahydro-benzo[b]thiophene-3-carboxylic acid amide]
inhibition at 10 µM (RICK-STREP 1): > 50% | inhibition at 10 µM (CK1-alpha GST): > 50% | inhibition at 10 µM (GSK-3beta HIS): > 50%

NC(=O)c1c(NC(=O)Nc2ccc(I)cc2)sc2c1CCC1(C2)OCCO1 [Compound D175, 2-({[(4-Iodophenyl)amino]carbonyl}amino)-4,7-dihydro-5H-spiro[1-benzothiophene-6,2′-[1,3]dioxolane]-3-carboxamide]
IC50 [1]: 0.1 to 1 µM

NC(=O)c1c(NC(=O)C2CC2)sc2c1CCC2 [Compound D196, 2-(Cyclopropanecarbonyl-amino)-5,6-dihydro-4H-cyclopenta[b]thiophene-3-carboxylic acid amide]
IC50 [1]: < 0.1 µM

NC(=O)c1c(NC(=O)Nc2ccc3c(c2)OCO3)sc2c1CCC(O)C2 (stereo not drawn) [Compound D212, 2-(3-Benzo[1,3]dioxol-5-yl-ureido)-6-hydroxy-4,5,6,7-tetrahydro-benzo[b]thiophene-3-carboxylic acid amide]
IC50 [1]: 0.1 to 1 µM
